Key:
Format in all cases: cell-based
SNAT5 (SLC38A5) [1] = molecular target: T1, SNAT5 (SLC38A5) (Homo sapiens, UniProt Q8WUX1, A138I); experiment: radiolabelled alanine uptake and competition with serine uptake in Xenopus oocytes; conditions: 50 μM substrate, 0-10 mM competitor; pH 8.5, Na+
T1 construct: full length in pSPORT1, expressed in Xenopus laevis oocytes

SNAT5 (SLC38A5) [2] = molecular target: T2, SNAT5 (SLC38A5) (Homo sapiens, UniProt Q8WUX1, A138T); experiment: as above; conditions: 50 μM substrate, 0-10 mM competitor; pH 8.5, Na+
T2 construct: full length in pSPORT1, expressed in Xenopus laevis oocytes
T2 sequence (Q8WUX1 whole entry A138T): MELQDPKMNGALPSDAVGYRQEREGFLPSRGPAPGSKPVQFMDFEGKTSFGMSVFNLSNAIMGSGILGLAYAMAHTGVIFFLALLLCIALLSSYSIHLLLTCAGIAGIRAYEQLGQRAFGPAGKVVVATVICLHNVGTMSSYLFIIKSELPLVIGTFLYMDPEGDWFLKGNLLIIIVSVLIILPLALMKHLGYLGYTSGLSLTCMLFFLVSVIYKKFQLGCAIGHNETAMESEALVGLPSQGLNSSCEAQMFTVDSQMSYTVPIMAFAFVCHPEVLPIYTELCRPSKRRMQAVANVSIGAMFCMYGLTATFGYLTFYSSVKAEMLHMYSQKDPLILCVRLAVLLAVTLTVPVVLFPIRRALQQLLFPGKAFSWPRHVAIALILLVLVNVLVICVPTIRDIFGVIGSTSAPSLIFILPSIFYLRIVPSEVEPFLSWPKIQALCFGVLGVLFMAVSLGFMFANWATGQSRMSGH

SNAT5 (SLC38A5) [3] = molecular target: T3, SNAT5 (SLC38A5) (Homo sapiens, UniProt Q8WUX1); experiment: radiolabelled serine uptake and self-competition in Xenopus oocytes; conditions: 50 μM serine; pH 8.5, Na+
T3 construct: full length in pSPORT1, expressed in Xenopus laevis oocytes
T3 sequence (Q8WUX1 whole entry): as the sequence (Q8WUX1 whole entry A138T) above, with T138A counted along it

PAT2 (SLC36A2) [4] = molecular target: T4, PAT2 (SLC36A2) (Rattus norvegicus, UniProt Q8K415, F159I); experiment: competition with radiolabelled proline uptake and direct uptake in Xenopus oocytes; conditions: 10 μM proline, 0-20 mM α-ABA; Na+-free, pH 5.5
T4 construct: full length in pSPORT1, expressed in Xenopus laevis oocytes
T4 sequence (Q8K415 whole entry F159I): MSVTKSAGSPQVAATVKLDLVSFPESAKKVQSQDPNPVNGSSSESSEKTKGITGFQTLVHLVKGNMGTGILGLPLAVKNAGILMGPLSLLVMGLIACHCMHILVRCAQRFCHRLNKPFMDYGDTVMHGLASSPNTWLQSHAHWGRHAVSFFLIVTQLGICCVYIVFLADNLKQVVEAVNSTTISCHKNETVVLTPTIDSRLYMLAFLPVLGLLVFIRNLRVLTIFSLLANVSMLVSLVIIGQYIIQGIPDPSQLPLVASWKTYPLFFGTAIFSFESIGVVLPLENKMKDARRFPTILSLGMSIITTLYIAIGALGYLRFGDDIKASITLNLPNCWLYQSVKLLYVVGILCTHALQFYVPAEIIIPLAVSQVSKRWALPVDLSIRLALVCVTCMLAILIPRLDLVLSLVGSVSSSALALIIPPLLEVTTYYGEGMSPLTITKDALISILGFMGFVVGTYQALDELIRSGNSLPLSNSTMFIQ

SNAT5 (SLC38A5) [5] = molecular target: T3, SNAT5 (SLC38A5); experiment: competition with radiolabelled serine uptake in Xenopus oocytes; conditions: 50 μM serine, 0-10 mM asparagine; pH 8.5, Na+
PAT2 (SLC36A2) [6] = molecular target: PAT2 (SLC36A2) (Rattus norvegicus, UniProt Q8K415); experiment: competition with radiolabelled proline uptake in Xenopus oocytes; design: full length in pSPORT1, expressed in Xenopus laevis oocytes; conditions: 10 μM proline, 10 mM glycine; Na+-free, pH 5.5
Sequence of PAT2 (SLC36A2) (Rattus norvegicus, UniProt Q8K415) (Q8K415 whole entry): as the sequence (Q8K415 whole entry F159I) above, with I159F counted along it

T1 sequence (Q8WUX1 whole entry A138I): as the sequence (Q8WUX1 whole entry A138T) above, with T138I counted along it

## C[C@H](N)C(=O)O [alanine]
SNAT5 (SLC38A5) [1]
  radiolabelled alanine uptake and competition with serine uptake in Xenopus oocyt: A138T and A138I mutants gain function and become excellent alanine transporters
SNAT5 (SLC38A5) [2]
  radiolabelled alanine uptake and competition with serine uptake in Xenopus oocyt: A138T and A138I mutants gain function and become excellent alanine transporters

## N[C@@H](CO)C(=O)O [serine]
SNAT5 (SLC38A5) [3]
  radiolabelled serine uptake and self-competition in Xenopus oocytes: Serine is transported well by SNAT5, whereas alanine is transported poorly

## CC[C@H](N)C(=O)O [α-ABA]
PAT2 (SLC36A2) [4]
  competition with radiolabelled proline uptake and direct uptake in Xenopus oocyt: PAT2-F159I not only binds Ser and α-ABA but efficiently translocates these amino acids

## NC(=O)C[C@H](N)C(=O)O [asparagine]
SNAT5 (SLC38A5) [5]
  competition with radiolabelled serine uptake in Xenopus oocytes: measured in the presence of e unlabelled serine, f asparagine, or g alanine

## NCC(=O)O [glycine]
PAT2 (SLC36A2) [6]
  competition with radiolabelled proline uptake in Xenopus oocytes: Glycine and alanine interact with all five carriers
